From patent publication US4503256A, “Phlorophenone derivatives, processes for preparing such compounds, uses and pharmaceutical compositions of phlorophenone compounds” (Noristan Limited, priority 1981, dated 1985)
≈ marks a conversion by molar mass, not a printed value.

What was measured:
S. AUREUS = experiment: Minimum Inhibitory Concentration (MIC), broth dilution in Brain Heart Infusion broth; type: cell-based, Staphylococcus aureus; details: 37° C., 48 hours, Brain Heart Infusion broth; for MIC: Staphylococcus aureus, read-out: MIC S. AUREUS
Protocol: (§1) For testing against the bacteria, concentrations of each of the compounds were prepared in Brain Heart Infusion broth (Oxoid CM225) in two-fold steps from 1000 μg/ml to 1 μg/ml. Solutions containing 1000 μg/ml were prepared by dissolving 20 mg of each compound in 5 ml of acetone and this was then made up to 20 ml with Brain Heart Infusion Broth. Serial two-fold dilutions were then prepared in the broth down to 1 μg/ml.
(§2) For testing against the bacteria each of the prepared test concentrations and acetone controls prepared in Brain Heart Infusion were dispensed in 2 ml amounts for each organism. A growth control of 2 ml of Brain Heart Infusion was included in each series.
(§3) To each of the prepared sets of concentrations of each compound were added 0.1 ml aliquots of the organism suspensions prepared as described previously. All the bottles were incubated at 37° C. for 48 hours in the case of the bacteria and from 5 to 15 days for the fungi (until growth controls had grown in each case).
(§4) After incubation the broths were examined for evidence of growth. The lowest concentration of the test compound which prevented growth was recorded as the Minimum Inhibitory Concentration (MIC).

St. PYOGENES = experiment: as above; type: cell-based; details: 37° C., 48 hours; for MIC: Streptococcus pyogenes
Protocol: as §1, §2, §3, §4

C. ALBICANS = experiment: Minimum Inhibitory Concentration (MIC), dilution in Sabouraud liquid medium; type: cell-based; details: 37° C., 5 to 15 days; for MIC: Candida albicans
Protocol: (§5) For testing against the fungi, concentrations of each of the compounds were prepared in Sabouraud liquid medium in two-fold steps from 100 μg/ml to 0.1 μg/ml. 500 μg/ml solutions were prepared by dissolving 10 mg in 5 ml of acetone, made up to 20 ml with Sabouraud liquid medium. 4 ml of the 500 μg/ml concentration was then made up to 20 ml with Sabouraud liquid medium to give a concentration of 100 μg/ml. Serial two-fold dilutions were prepared from this in the same medium down to 0.1 μg/ml.
(§6) For the fungi the same procedure was followed using the concentrations made up in Sabouraud liquid medium. The Nystatin concentrations were also dispensed in 2 ml amounts for each organism. Growth controls of Sabouraud liquid medium were included in each series.
as §3, §4

Mic. CANIS = experiment: as above; type: cell-based; details: 37° C., 5 to 15 days; for MIC: Microsporum canis
Protocol: as §5, §6, §3, §4

Sp. SCHENKII = experiment: as above; type: cell-based; details: 37° C., 5 to 15 days
Protocol: as §5, §6, §3, §4

Tr. MENTAGROPHYTES = experiment: as above; type: cell-based; details: 37° C., 5 to 15 days; for MIC: Trichophyton mentagrophytes
Protocol: as §5, §6, §3, §4

Tr. RUBRUM = experiment: as above; type: cell-based; details: 37° C., 5 to 15 days; for MIC: Trichophyton rubrum
Protocol: as §5, §6, §3, §4

CD-1 mice = experiment: Acute oral toxicity in CD-1 mice; type: in vivo; details: male and female CD-1 mice, dose levels 1000, 464, 215 and 100 mg/kg, 7 days observation
Protocol: (§7) Male and female CD-1 mice were fasted for 18 hours prior to the experiment, but water was available ad libitum except during the observation period. The test compounds were prepared in 1% tragacanth and were administered orally to groups of two male and two female mice.
(§8) All compounds were tested at dose levels of 1000, 464, 215 and 100 mg/kg. Immediately after dosing, the mice were replaced in their "home" cage and were observed daily for 7 days post dose and any mortalities recorded.
(§9) The acute toxicities, as determined by the above procedure, of a number of representative compounds are given in the accompanying table.

bacteria = details: literature (W. Riedl); cited from earlier work
[1] = Acute oral toxicity in CD-1 mice; type: in vivo; details: mouse, in vivo, male and female CD-1 mice, dose levels 1000, 464, 215 and 100 mg/kg, 7 days observation
Protocol: as §7, §8, §9

Compound: either 7-butyryl-4,6-dihydroxy-2-methyl-2,3-dihydrobenzofuran or 5-butyryl-4,6-dihydroxy-2-methyl-2,3-dihydrobenzofuran [Compound 35]
- MIC S. AUREUS (S. AUREUS): 125 µg/mL
- MIC St. PYOGENES (St. PYOGENES): 32 µg/mL
- MIC C. ALBICANS (C. ALBICANS): 25 µg/mL
- MIC Mic. CANIS (Mic. CANIS): 12,5 μg/ml
- MIC Sp. SCHENKII (Sp. SCHENKII): 50 µg/mL
- MIC Tr. MENTAGROPHYTES (Tr. MENTAGROPHYTES): 25 µg/mL
- MIC Tr. RUBRUM (Tr. RUBRUM): 25 µg/mL
- LD50 (CD-1 mice): > 1000

Compound: CC(C)=CCC1=C(O)C(O)(CC=C(C)C)C(=O)C(C(=O)CC(C)C)=C1O (stereo not drawn) [humulon]
- antibiotic / antibacterial activity (in words) (bacteria): certain antibiotic properties

Compound: CC(C)=CCC1=C(O)C(C(=O)CC(C)C)=C(O)C(CC=C(C)C)(CC=C(C)C)C1=O [lupulone]
- antibiotic / antibacterial activity (in words) (bacteria): certain antibiotic properties

Compound: CCC(=O)c1c(O)cc(O)c(CC=C(C)C)c1O [Compound 2, 2-Propionyl-4-(3-methylbuten-2-yl)phloroglucinol]
- MIC (S. AUREUS): 125 µg/mL (≈ 499 µM)
- MIC (St. PYOGENES): 8 µg/mL (≈ 32 µM)
- MIC (C. ALBICANS): 50 µg/mL (≈ 200 µM)
- MIC (Mic. CANIS): 13 µg/mL (≈ 51.9 µM)
- MIC (Sp. SCHENKII): 25 µg/mL (≈ 99.9 µM)
- MIC (Tr. MENTAGROPHYTES): 25 µg/mL (≈ 99.9 µM)
- MIC (Tr. RUBRUM): 13 µg/mL (≈ 51.9 µM)
- LD50 at 168 h [1]: > 1000 mg/kg

Compound: CC(C)CCC(=O)c1c(O)cc(O)c2c1OC(C)(C)CC2 [Compound 31, 5,7-Dihydroxy-2,2-dimethyl-8-isocaproylchroman]
- MIC (S. AUREUS): 16 µg/mL (≈ 54.7 µM)
- MIC (St. PYOGENES): 8 µg/mL (≈ 27.4 µM)
- MIC (C. ALBICANS): 100 µg/mL (≈ 342 µM)
- MIC (Mic. CANIS): 13 µg/mL (≈ 44.5 µM)
- MIC (Sp. SCHENKII): 6 µg/mL (≈ 20.5 µM)
- MIC (Tr. MENTAGROPHYTES): 6 µg/mL (≈ 20.5 µM)
- MIC (Tr. RUBRUM): 25 µg/mL (≈ 85.5 µM)
- LD50 at 168 h [1]: > 1000 mg/kg

Compound: CC(C)CCC(=O)c1c(O)cc(O)c(Cc2ccccc2)c1O [Compound 25, 2-Isocaproyl-4-benzylphloroglucinol]
- MIC (S. AUREUS): 16 µg/mL (≈ 50.9 µM)
- MIC (St. PYOGENES): 8 µg/mL (≈ 25.4 µM)
- MIC (C. ALBICANS): 13 µg/mL (≈ 41.4 µM)
- MIC (Mic. CANIS): 6 µg/mL (≈ 19.1 µM)
- MIC (Sp. SCHENKII): 25 µg/mL (≈ 79.5 µM)
- MIC (Tr. MENTAGROPHYTES): 3 µg/mL (≈ 9.54 µM)
- MIC (Tr. RUBRUM): 6 µg/mL (≈ 19.1 µM)
- LD50 at 168 h [1]: 1000 mg/kg

Compound: C=CCc1c(O)cc(O)c(C(=O)CC)c1O [Compound 15]
- MIC (S. AUREUS): 250 µg/mL (≈ 1120 µM)
- MIC (St. PYOGENES): 125 µg/mL (≈ 562 µM)
- MIC (C. ALBICANS): 100 µg/mL (≈ 450 µM)
- MIC (Mic. CANIS): 50 µg/mL (≈ 225 µM)
- MIC (Sp. SCHENKII): 50 µg/mL (≈ 225 µM)
- MIC (Tr. MENTAGROPHYTES): 25 µg/mL (≈ 112 µM)
- MIC (Tr. RUBRUM): 50 µg/mL (≈ 225 µM)
- LD50 at 168 h [1]: > 1000 mg/kg
